Results as given in patent US9102591B2, “Benzamides” (H. Lundbeck A/S, priority 2012, dated 2015).

Target: P2X7 receptor (Homo sapiens (Human), UniProt Q99572)
Experiment: P2X7 FLIPR assay (BzATP-stimulated calcium fluorescence, antagonist IC50)
Assay type: cell-based
Method in brief: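 Cells expressing P2X7 receptor (human, rat or mouse), plated 24 hours earlier in low-serum medium, loaded with Fluo-4 NW dye (30 min 37° C, 30 min room temperature).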

Chain of P2X7 receptor (Q99572 whole entry): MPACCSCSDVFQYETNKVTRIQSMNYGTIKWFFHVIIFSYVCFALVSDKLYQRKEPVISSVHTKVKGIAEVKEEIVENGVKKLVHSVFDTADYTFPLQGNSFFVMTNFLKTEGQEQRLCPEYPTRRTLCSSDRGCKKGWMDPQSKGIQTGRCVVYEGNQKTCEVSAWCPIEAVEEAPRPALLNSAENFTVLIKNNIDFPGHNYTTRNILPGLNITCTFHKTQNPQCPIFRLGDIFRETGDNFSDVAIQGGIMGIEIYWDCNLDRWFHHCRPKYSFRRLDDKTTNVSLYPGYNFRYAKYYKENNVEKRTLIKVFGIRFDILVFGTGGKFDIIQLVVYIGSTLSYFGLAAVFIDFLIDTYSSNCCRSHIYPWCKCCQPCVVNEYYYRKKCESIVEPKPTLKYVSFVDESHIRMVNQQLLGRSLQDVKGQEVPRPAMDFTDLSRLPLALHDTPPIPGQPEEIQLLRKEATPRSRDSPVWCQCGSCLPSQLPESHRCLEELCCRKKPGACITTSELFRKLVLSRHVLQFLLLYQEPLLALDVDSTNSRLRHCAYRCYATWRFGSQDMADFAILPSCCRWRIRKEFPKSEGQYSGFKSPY

IC50 [nM]	Structure (SMILES)
68	O=C(NCC(c1cnc(C(F)(F)F)nc1)C1CCOCC1)c1c(F)cccc1Cl (single isomer, unassigned; (-)) [(−)2-chloro-6-fluoro-N-[2-tetrahydropyran-4-yl-2-[2-(trifluo] [(−)2-chloro-6-fluoro-N-[2-tetrahydropyran-4-yl-2-[2-(trifluoromethyl)pyrimidin-5-yl]ethyl]benzamide]
14	O=C(NCC(CC1CC1)c1cnc(C(F)(F)F)nc1)c1cccc(F)c1Cl (stereo not shown) [2-chloro-N-(3-cyclopropyl-2-(2-(trifluoromethyl)pyrimidin-5-] [2-chloro-N-(3-cyclopropyl-2-(2-(trifluoromethyl)pyrimidin-5-yl)propyl)-3-fluorobenzamide]
1600	Cc1ncc(C2(C(C)NC(=O)c3ccccc3Cl)CCC(F)(F)CC2)cn1 (stereo not shown) [2-chloro-N-[1-[4,4-difluoro-1-(2-methylpyrimidin-5-yl)cyclohexyl]ethyl]benzamide]
0.55	O=C(NCC(CC1CC1)c1ccc(C(F)(F)F)nc1)c1cccc(Cl)c1Cl (stereo not shown) [2,3-dichloro-N-[3-cyclopropyl-2-[6-(trifluoromethyl)-3-pyrid] [2,3-dichloro-N-[3-cyclopropyl-2-[6-(trifluoromethyl)-3-pyridyl]propyl]benzamide]
380	CC(C)(O)c1ccc(C2(CNC(=O)c3ccccc3Cl)CCC(F)(F)CC2)cn1 [2-chloro-N-[[4,4-difluoro-1-[6-(1-hydroxy-1-methyl-ethyl)-3-pyridyl]cyclohexyl]methyl]benzamide]
50	O=C(NCC(CC1CC1)c1cnc(C(F)(F)F)nc1)c1cccc(F)c1Cl (single isomer, unassigned; (+)) [(+)2-chloro-N-[3-cyclopropyl-2-[2-(trifluoromethyl)pyrimidin] [(+)2-chloro-N-[3-cyclopropyl-2-[2-(trifluoromethyl)pyrimidin-5-yl]propyl]-3-fluoro-benzamide]
8.1	CS(=O)(=O)c1ccc(Cl)c(C(=O)NCC(CC2CC2)c2ccc(C(F)(F)F)nc2)c1 (single isomer, unassigned; (-)) [(−)2-chloro-N-[3-cyclopropyl-2-[6-(trifluoromethyl)-3-pyridy] [(−)2-chloro-N-[3-cyclopropyl-2-[6-(trifluoromethyl)-3-pyridyl]propyl]-5-methylsulfonyl-benzamide]
12	O=C(NCC(c1ccc(F)cc1)c1ccc(C(F)(F)F)nc1)c1cccc(Cl)c1Cl (single isomer, unassigned; (+)) [(+)2,3-dichloro-N-[2-(4-fluorophenyl)-2-[6-(trifluoromethyl)] [(+)2,3-dichloro-N-[2-(4-fluorophenyl)-2-[6-(trifluoromethyl)-3-pyridyl]ethyl]benzamide]
120	O=C(NCC(c1ccccc1)c1ccc(Cl)cc1)c1cccc(Cl)c1Cl (stereo not shown) [2,3-dichloro-N-(2-(4-chlorophenyl)-2-phenylethyl)benzamide]
65	COc1ccc(F)c(C(=O)NCC2(c3ccc(F)nc3)CCC(F)(F)CC2)c1 [N-((4,4-difluoro-1-(6-fluoropyridin-3-yl)cyclohexyl)methyl)-2-fluoro-5-methoxybenzamide]
1700	O=C(NCC(CC1(C(F)(F)F)CC1)c1ccc(C2CC2)nc1)c1ccccc1F (stereo not shown) [N-[2-(6-cyclopropyl-3-pyridyl)-3-[1-(trifluoromethyl)cyclopropyl]propyl]-2-fluoro-benzamide]
17	CC(CNC(=O)c1ccccc1Cl)(CC1CC1)c1cnc(C(F)(F)F)nc1 (single isomer, unassigned; (-)) [(−)2-chloro-N-[3-cyclopropyl-2-methyl-2-[2-(trifluoromethyl)] [(−)2-chloro-N-[3-cyclopropyl-2-methyl-2-[2-(trifluoromethyl)pyrimidin-5-yl]propyl]benzamide]
2	O=C(NCC1(c2ccc(C(F)(F)F)nc2)CCC(F)(F)CC1)c1ccccc1Cl [2-chloro-N-((4,4-difluoro-1-(6-(trifluoromethyl)pyridin-3-yl)cyclohexyl)methyl)benzamide]
29	O=C(NCC(CC1(C(F)(F)F)CC1)c1cnc(C(F)(F)F)nc1)c1cccc(F)c1Cl (single isomer, unassigned; (-)) [(−)2-chloro-3-fluoro-N-[3-[1-(trifluoromethyl)cyclopropyl]-2] [(−)2-chloro-3-fluoro-N-[3-[1-(trifluoromethyl)cyclopropyl]-2-[2-(trifluoromethyl)pyrimidin-5-yl]propyl]benzamide]
4.8	O=C(NCC(c1ccc(F)cc1)c1cnc(C(F)(F)F)nc1)c1cccc(F)c1Cl (single isomer, unassigned; (+)) [(+)2-chloro-3-fluoro-N-[2-(4-fluorophenyl)-2-[2-(trifluorome] [(+)2-chloro-3-fluoro-N-[2-(4-fluorophenyl)-2-[2-(trifluoromethyl)pyrimidin-5-yl]ethyl]benzamide]
7.1	COc1cccc(C(=O)NCC2(c3ccc(C(F)(F)F)nc3)CCC(F)(F)CC2)c1Cl [2-chloro-N-((4,4-difluoro-1-(6-(trifluoromethyl)pyridin-3-yl)cyclohexyl)methyl)-3-methoxybenzamide]
1.9	O=C(NCC(CC1CC1)c1cnc(C(F)F)nc1)c1cccc(Cl)c1Cl (single isomer, unassigned; (-)) [(−)2,3-dichloro-N-[3-cyclopropyl-2-[2-(difluoromethyl)pyrimi] [(−)2,3-dichloro-N-[3-cyclopropyl-2-[2-(difluoromethyl)pyrimidin-5-yl]propyl]benzamide]
1300	Cc1ccc(C(CNC(=O)c2cccc(Cl)c2Cl)CC2CC2)c(C)n1 (stereo not shown) [2,3-dichloro-N-[3-cyclopropyl-2-(2,6-dimethyl-3-pyridyl)propyl]benzamide]
210	Cc1ncc(C(CNC(=O)c2cccc(F)c2Cl)C2CCOCC2)cn1 (stereo not shown) [2-chloro-3-fluoro-N-[2-(2-methylpyrimidin-5-yl)-2-tetrahydropyran-4-yl-ethyl]benzamide]
